Measurements from ChEMBL document CHEMBL1165965, “Synthesis and structure-activity relationships of 1,2,3,4-tetrahydropyrido[2,3-b]pyrazines as potent and selective inhibitors of the anaplastic lymphoma kinase” (Bioorg Med Chem, 2010).

Tests used:
[1] = target: Ribosomal protein S6 kinase alpha-4 (Homo sapiens) (UniProt O75676); test: Inhibition of RPS6KA4 C-terminal domain2 at 1 uM
[2] = target: Tyrosine-protein kinase SYK (Homo sapiens) (UniProt P43405); test: Inhibition of SYK at 1 uM
[3] = target: T1, Serine/threonine-protein kinase NLK (Homo sapiens) (UniProt Q9UBE8); test: Inhibition of NLK at 1 uM
T1 sequence (whole entry): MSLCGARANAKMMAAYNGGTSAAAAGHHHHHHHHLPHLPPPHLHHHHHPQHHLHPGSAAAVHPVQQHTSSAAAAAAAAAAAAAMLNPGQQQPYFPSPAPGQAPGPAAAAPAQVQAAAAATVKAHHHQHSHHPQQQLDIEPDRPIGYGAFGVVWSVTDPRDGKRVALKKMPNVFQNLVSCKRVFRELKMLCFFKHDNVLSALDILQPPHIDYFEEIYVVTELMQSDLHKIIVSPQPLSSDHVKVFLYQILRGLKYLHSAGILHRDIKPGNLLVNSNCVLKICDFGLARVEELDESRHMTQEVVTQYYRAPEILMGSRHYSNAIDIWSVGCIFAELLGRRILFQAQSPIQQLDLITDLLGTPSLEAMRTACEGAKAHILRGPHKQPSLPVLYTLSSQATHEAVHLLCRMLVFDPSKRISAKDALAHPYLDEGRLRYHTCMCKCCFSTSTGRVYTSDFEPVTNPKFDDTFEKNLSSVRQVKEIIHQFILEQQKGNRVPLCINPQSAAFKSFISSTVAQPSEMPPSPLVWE

[4] = target: T2, Serine/threonine-protein kinase TAO1 (Homo sapiens) (UniProt Q7L7X3); test: Inhibition of TAO1 at 1 uM
T2 sequence (whole entry): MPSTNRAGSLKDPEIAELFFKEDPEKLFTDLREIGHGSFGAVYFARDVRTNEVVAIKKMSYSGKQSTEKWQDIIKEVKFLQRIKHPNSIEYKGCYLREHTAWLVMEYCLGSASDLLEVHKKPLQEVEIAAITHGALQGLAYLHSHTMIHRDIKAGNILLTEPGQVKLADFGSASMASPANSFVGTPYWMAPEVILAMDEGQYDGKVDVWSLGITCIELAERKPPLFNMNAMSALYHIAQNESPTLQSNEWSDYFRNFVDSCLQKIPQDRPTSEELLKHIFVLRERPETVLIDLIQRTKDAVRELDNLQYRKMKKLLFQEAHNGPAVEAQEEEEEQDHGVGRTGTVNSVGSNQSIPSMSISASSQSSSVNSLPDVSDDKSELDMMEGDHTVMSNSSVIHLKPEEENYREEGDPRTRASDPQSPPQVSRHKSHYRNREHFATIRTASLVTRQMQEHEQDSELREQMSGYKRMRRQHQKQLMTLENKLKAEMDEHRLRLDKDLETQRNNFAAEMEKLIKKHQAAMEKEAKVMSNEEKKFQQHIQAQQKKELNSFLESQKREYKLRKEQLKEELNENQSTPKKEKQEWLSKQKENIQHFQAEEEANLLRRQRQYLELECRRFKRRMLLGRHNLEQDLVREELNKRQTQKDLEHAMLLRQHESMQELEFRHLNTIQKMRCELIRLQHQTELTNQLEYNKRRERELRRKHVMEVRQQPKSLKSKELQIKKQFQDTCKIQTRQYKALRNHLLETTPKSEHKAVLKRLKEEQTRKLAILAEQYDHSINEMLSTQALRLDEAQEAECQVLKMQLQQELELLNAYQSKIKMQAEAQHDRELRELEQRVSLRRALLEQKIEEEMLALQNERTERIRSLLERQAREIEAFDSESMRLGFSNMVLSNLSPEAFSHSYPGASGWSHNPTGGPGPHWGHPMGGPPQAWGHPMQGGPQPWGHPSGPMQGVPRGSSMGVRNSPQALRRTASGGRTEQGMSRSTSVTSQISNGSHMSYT

[5] = target: Cyclin-dependent kinase 3 (Homo sapiens) (UniProt Q00526); test: Inhibition of CDK3 at 1 uM
Chain of Cyclin-dependent kinase 3 (Homo sapiens) (Q00526 whole entry, looked up): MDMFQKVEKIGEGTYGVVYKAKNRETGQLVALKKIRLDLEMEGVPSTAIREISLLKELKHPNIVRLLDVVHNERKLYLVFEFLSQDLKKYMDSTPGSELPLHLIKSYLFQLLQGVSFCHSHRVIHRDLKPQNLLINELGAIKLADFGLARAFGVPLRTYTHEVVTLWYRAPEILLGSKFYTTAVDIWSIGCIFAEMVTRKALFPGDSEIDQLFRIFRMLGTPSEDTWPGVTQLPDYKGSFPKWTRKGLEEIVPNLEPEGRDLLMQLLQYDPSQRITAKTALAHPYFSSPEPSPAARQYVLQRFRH

[6] = target: Receptor-interacting serine/threonine-protein kinase 2 (Homo sapiens) (UniProt O43353); test: Inhibition of RIPK2 at 1 uM
Chain of Receptor-interacting serine/threonine-protein kinase 2 (Homo sapiens) (O43353 whole entry): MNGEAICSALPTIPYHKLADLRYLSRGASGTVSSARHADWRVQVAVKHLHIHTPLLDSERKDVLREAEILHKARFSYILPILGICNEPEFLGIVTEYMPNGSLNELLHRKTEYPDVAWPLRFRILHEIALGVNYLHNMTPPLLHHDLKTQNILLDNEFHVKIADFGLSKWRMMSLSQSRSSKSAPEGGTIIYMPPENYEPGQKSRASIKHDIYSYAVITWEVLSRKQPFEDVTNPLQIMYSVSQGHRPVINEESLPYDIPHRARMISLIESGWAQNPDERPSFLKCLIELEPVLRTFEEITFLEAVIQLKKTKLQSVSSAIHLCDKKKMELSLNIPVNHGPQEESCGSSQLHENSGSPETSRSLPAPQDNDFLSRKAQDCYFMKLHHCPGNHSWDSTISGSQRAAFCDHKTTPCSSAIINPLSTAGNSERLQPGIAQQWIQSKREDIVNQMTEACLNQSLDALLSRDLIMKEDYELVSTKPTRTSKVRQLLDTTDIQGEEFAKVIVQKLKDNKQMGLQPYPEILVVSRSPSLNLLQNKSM

[7] = target: Serine/threonine-protein kinase PRP4 homolog (Homo sapiens) (UniProt Q13523); test: Inhibition of PRP4 at 1 uM
Chain of Serine/threonine-protein kinase PRP4 homolog (Homo sapiens) (Q13523 whole entry): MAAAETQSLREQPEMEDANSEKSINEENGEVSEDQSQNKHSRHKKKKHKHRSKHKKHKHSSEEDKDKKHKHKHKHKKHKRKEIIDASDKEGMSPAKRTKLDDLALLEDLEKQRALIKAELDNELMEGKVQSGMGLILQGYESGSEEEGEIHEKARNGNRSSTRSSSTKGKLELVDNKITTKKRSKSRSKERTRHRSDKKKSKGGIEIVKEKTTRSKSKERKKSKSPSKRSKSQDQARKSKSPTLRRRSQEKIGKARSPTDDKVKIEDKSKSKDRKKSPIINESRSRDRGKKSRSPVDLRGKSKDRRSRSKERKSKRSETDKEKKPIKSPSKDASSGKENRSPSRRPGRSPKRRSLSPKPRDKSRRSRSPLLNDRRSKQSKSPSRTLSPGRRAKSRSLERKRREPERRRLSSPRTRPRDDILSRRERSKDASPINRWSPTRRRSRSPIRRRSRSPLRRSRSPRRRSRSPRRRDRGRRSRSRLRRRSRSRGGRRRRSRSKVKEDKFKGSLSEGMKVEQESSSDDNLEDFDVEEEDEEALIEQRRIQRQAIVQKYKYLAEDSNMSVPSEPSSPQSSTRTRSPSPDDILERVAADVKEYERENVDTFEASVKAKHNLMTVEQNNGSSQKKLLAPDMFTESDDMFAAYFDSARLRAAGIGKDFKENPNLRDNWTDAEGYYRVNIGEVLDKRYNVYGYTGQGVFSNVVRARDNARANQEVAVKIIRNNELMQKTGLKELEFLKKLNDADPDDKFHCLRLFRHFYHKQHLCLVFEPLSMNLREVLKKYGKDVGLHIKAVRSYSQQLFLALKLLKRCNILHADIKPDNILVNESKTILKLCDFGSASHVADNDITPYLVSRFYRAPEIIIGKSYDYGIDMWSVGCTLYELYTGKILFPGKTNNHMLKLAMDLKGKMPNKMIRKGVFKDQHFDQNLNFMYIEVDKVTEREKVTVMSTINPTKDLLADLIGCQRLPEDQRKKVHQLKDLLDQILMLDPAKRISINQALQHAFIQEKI

[8] = target: T3, Membrane-associated tyrosine- and threonine-specific cdc2-inhibitory kinase (Homo sapiens) (UniProt Q99640); test: Inhibition of PKMYT1 at 1 uM
T3 sequence (whole entry): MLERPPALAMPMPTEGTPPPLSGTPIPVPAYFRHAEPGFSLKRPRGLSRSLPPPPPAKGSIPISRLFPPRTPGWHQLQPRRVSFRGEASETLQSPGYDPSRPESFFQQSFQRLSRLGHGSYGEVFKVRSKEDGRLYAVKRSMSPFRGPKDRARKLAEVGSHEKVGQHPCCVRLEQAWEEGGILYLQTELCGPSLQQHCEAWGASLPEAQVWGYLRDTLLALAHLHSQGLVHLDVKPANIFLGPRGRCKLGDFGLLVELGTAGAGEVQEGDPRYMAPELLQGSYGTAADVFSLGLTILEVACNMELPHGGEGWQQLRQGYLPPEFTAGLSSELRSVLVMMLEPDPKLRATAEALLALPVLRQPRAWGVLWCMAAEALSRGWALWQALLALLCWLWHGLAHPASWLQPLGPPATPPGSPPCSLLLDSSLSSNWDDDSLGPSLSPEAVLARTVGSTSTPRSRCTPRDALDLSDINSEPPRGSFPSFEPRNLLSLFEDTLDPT

[9] = target: Mitogen-activated protein kinase 6 (Homo sapiens) (UniProt Q16659); test: Inhibition of ERK3 at 1 uM
Chain of Mitogen-activated protein kinase 6 (Homo sapiens) (Q16659 whole entry): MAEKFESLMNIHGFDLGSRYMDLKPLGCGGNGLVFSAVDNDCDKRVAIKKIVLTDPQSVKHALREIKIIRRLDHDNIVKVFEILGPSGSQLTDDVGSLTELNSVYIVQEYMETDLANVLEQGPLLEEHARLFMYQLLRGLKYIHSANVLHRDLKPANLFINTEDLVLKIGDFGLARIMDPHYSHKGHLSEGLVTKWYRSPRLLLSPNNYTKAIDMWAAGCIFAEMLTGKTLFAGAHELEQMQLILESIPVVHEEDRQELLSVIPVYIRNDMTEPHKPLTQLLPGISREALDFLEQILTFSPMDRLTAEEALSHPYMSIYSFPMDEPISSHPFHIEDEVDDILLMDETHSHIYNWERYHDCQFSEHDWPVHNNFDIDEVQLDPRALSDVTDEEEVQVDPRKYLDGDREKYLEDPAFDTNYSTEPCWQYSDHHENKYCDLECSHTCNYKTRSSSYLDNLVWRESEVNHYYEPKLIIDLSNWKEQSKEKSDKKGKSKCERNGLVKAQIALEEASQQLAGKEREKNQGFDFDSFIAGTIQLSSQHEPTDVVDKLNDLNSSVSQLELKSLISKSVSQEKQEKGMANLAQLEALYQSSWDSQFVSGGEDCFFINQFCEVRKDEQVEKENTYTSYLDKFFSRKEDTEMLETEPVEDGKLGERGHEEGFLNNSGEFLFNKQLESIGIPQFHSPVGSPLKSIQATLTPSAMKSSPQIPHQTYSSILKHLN

Measured: inhibition

Chain of Ribosomal protein S6 kinase alpha-4 (Homo sapiens) (O75676 whole entry, looked up, the tested form may be a part): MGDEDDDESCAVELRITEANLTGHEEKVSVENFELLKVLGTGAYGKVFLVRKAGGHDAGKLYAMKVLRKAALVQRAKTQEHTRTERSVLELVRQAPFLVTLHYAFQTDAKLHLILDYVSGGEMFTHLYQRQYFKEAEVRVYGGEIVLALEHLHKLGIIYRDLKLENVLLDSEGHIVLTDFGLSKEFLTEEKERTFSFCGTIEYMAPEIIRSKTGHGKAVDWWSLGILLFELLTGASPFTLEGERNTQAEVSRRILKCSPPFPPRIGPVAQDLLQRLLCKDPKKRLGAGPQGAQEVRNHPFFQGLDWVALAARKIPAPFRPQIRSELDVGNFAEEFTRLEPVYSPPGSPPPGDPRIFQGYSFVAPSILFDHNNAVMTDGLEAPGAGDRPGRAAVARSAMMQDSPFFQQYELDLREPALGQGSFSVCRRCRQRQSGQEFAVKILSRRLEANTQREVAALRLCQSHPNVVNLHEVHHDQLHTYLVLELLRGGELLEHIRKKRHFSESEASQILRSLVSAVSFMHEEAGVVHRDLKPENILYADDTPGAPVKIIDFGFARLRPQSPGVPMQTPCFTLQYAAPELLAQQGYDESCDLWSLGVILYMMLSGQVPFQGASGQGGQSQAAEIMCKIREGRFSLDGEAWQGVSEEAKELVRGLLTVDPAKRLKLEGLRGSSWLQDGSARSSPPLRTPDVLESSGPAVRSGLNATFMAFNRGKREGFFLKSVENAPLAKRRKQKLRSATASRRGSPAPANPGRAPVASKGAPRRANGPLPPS

FC(F)(F)c1ccc(Cl)cc1CN1CCNc2ncc(-c3ccnc(N4CCNCC4)c3)cc21
< 50%: [1] | [2] | [3] | [4] | [5] | [6] | [7] | [8] | [9]

CN1CCN(c2ccc(-c3cnc4c(c3)N(Cc3cc(Cl)ccc3Cl)CCN4)cn2)CC1
< 50%: [1] | [2] | [3] | [4] | [5] | [6] | [7] | [8] | [9]

COC1CCN(C(=O)c2ccc(-c3cnc4c(c3)N(Cc3cc(Cl)ccc3C(F)(F)F)CCN4)cc2)CC1
< 50%: [2] | [3] | [6] | [8]

O=C(c1ccc(-c2cnc3c(c2)N(Cc2cc(Cl)ccc2C(F)(F)F)CCN3)cc1)N1CCCCC1
< 50%: [2] | [3] | [6] | [8]

O=C(O)c1ccc(-c2cnc3c(c2)N(Cc2cc(Cl)ccc2C(F)(F)F)CCN3)cc1
< 50%: [2] | [3] | [6] | [8]

CN1CCN(c2ccc(-c3cnc4c(c3)N(Cc3cc(F)ccc3F)CCN4)cn2)CC1
< 50%: [1] | [2] | [3] | [4] | [5] | [6] | [7] | [8] | [9]

O=C(c1ccc(-c2cnc3c(c2)N(Cc2cc(Cl)ccc2C(F)(F)F)CCN3)cc1)N1CCC(N2CCCC2)CC1
< 50%: [2] | [3] | [6] | [8]

CN1CCN(c2ccc(-c3cnc4c(c3)N(Cc3c(F)ccc(F)c3Cl)CCN4)cn2)CC1
< 50%: [1] | [2] | [3] | [4] | [5] | [6] | [7] | [8] | [9]

CC(=O)N1CCN(c2cc(-c3cnc4c(c3)N(Cc3cc(Cl)ccc3C(F)(F)F)CCN4)ccn2)CC1
< 50%: [1] | [2] | [3] | [4] | [5] | [6] | [7] | [8] | [9]

CN1CCN(c2ccc(-c3cnc4c(c3)N(Cc3cc(Cl)ccc3C(F)(F)F)CCN4)cn2)CC1
< 50%: [1] | [2] | [3] | [4] | [5] | [6] | [7] | [8] | [9]
